Values after ≈ are worked out from the molar mass of the structure shown. Like-named read-outs stand apart in the source and are kept apart here.
Experiments:
[1] = system: Streptococcus pneumoniae Park I; experiment: microbe, parasite or virus in culture; assay type: cell-based; details: Streptococcus pneumoniae
Protocol: (§1) The MIC's in Table III were determined by standard agar-dilution assays. The MIC's in Table IV were obtained using conventional brothdilution microtiter tests.

[2] = system: Staphylococcus aureus S13E; experiment: microbe, parasite or virus in culture; assay type: cell-based; details: Staphylococcus aureus, S13E
Protocol: as §1

[3] = system: Pasteurella multocida 68C; experiment: broth-dilution microtiter MIC test; assay type: cell-based; details: Pasteurella multocida, 68C
Protocol: as §1

Streptococcus sp. 19F = experiment: broth-dilution microtiter MIC test; assay type: cell-based; details: Streptococcus, SP.19F
Protocol: as §1

[4] = system: Pasteurella multocida 60A; experiment: broth-dilution microtiter MIC test; assay type: cell-based; details: Pasteurella multocida, 60A
Protocol: as §1

[5] = system: Pasteurella hemolytica 23C; experiment: broth-dilution microtiter MIC test; assay type: cell-based; details: Pasteurella, 23C
Protocol: as §1

[6] = system: Pasteurella multocida 40G; experiment: broth-dilution microtiter MIC test; assay type: cell-based; details: Pasteurella multocida, 40G
Protocol: as §1

[7] = system: Pasteurella multocida 17E; experiment: broth-dilution microtiter MIC test; assay type: cell-based; details: Pasteurella multocida, 17E
Protocol: as §1

[8] = system: Staphylococcus aureus 19C; experiment: broth-dilution microtiter MIC test; assay type: cell-based; details: Staphylococcus aureus, 19C
Protocol: as §1

[9] = system: Pasteurella hemolytica 22C; experiment: broth-dilution microtiter MIC test; assay type: cell-based; details: Pasteurella, 22C
Protocol: as §1

[10] = system: Mycoplasma gallisepticum 29C; experiment: broth-dilution microtiter MIC test; assay type: cell-based; details: Mycoplasmoides gallisepticum, 29C
Protocol: as §1

[11] = system: Bordetella bronchiseptica; experiment: broth-dilution microtiter MIC test; assay type: cell-based; details: Bordetella bronchiseptica; broth-dilution microtiter; read-out: MIC
Protocol: as §1

[12] = system: Pasteurella hemolytica 41D; experiment: broth-dilution microtiter MIC test; assay type: cell-based; details: Pasteurella, 41D
Protocol: as §1

[13] = system: Pasteurella multocida 22A; experiment: broth-dilution microtiter MIC test; assay type: cell-based; details: Pasteurella multocida, 22A
Protocol: as §1

Mycoplasma hyorhinis 29E = experiment: broth-dilution microtiter MIC test; assay type: cell-based; details: Mycoplasma, 29E
Protocol: as §1

[14] = system: Mycoplasma gallisepticum 15E; experiment: broth-dilution microtiter MIC test; assay type: cell-based; details: Mycoplasmoides gallisepticum, 15E
Protocol: as §1

[15] = system: Mycoplasma gallisepticum 36H; experiment: broth-dilution microtiter MIC test; assay type: cell-based; details: Mycoplasmoides gallisepticum, 36H
Protocol: as §1

Mycoplasma synoviae 40A = experiment: broth-dilution microtiter MIC test; assay type: cell-based; details: Mycoplasmopsis synoviae, 40A
Protocol: as §1

[16] = system: Klebsiella pneumoniae X68; experiment: standard agar-dilution MIC assay; assay type: cell-based; details: Klebsiella pneumoniae, X68; agar-dilution; read-out: MIC
Protocol: as §1

[17] = system: Streptococcus Group D X66; experiment: standard agar-dilution MIC assay; assay type: cell-based; details: read-out: MIC
Protocol: as §1

[18] = system: Staphylococcus aureus X400; experiment: standard agar-dilution MIC assay; assay type: cell-based; details: Staphylococcus aureus, X400
Protocol: as §1

[19] = system: Haemophilus influenzae 76; experiment: standard agar-dilution MIC assay; assay type: cell-based; details: Haemophilus influenzae, 76
Protocol: as §1

[20] = system: Haemophilus influenzae C.L.; experiment: standard agar-dilution MIC assay; assay type: cell-based; details: Haemophilus influenzae
Protocol: as §1

Escherichia coli EC14 = experiment: standard agar-dilution MIC assay; assay type: cell-based; details: agar-dilution, read-out: MIC
Protocol: as §1

[21] = system: Staphylococcus epidermidis EPI1; experiment: standard agar-dilution MIC assay; assay type: cell-based; details: Staphylococcus epidermidis, EPI1
Protocol: as §1

[22] = system: Staphylococcus aureus X1.1; experiment: standard agar-dilution MIC assay; assay type: cell-based; details: Staphylococcus aureus, X1.1
Protocol: as §1

[23] = system: Streptococcus Group D 9960; experiment: standard agar-dilution MIC assay; assay type: cell-based; details: GROUPD9960, read-out: MIC
Protocol: as §1

[24] = system: Staphylococcus aureus V41; experiment: standard agar-dilution MIC assay; assay type: cell-based; details: Staphylococcus aureus, V41
Protocol: as §1

[25] = system: Streptococcus pyogenes C203; experiment: standard agar-dilution MIC assay; assay type: cell-based; details: Streptococcus pyogenes, C203
Protocol: as §1

[26] = system: Pseudomonas aeruginosa X239; experiment: standard agar-dilution MIC assay; assay type: cell-based; details: Pseudomonas aeruginosa, X239; agar-dilution; read-out: MIC
Protocol: as §1

[27] = system: Streptococcus pyogenes C203; experiment: protection of mice experimentally infected with S. pyogenes C203; assay type: in vivo; details: mice, mg/kg × 2, doses given 1 and 4 hours postinfection, read-out: ED50
Protocol: The formula 1 compounds have shown in vivo antimicrobial activity against experimentally-induced infections in laboratory animals. When two doses of test compound were administered to mice experimentally infected with S. pyrogenes C203, the activity observed was measured as an ED50 value [effective dose in mg/kg to protect 50% of the test animals: see Warren Wick, et al., J. Bacteriol. 81, 233-235 (1961)].
^a mg/kg × 2; doses given 1 and 4 hours postinfection

[28] = broth-dilution microtiter, read-out: MIC

CCC1OC(=O)CC(O)C(C)C(OC2OC(C)C(O)C(N(C)C)C2O)C(CC=O)CC(C)C(=O)C=CC(C)=CC1COC1OC(C)C(OC(=O)CC(C)C)C(OC(=O)CC(C)C)C1OC (centres unmarked) [Compound 28, 3",4"-Di-O-isovaleryl-lactenocin]
MIC [1]: 0.5 µg/mL (≈ 0.54 µM)
MIC [2]: 2 µg/mL (≈ 2.16 µM)
MIC [3]: 50 µg/mL (≈ 54 µM)
MIC (Streptococcus sp. 19F): 3.12 µg/mL (≈ 3.37 µM)
MIC ([4]; broth-dilution microtiter, Avian isolate, read-out: MIC): > 50 µg/mL
MIC [5, 28]: > 50 µg/mL
MIC [6]: 50 µg/mL (≈ 54 µM)
MIC ([7]; broth-dilution microtiter, Bovine isolate, read-out: MIC): > 50 µg/mL
MIC [8]: 6.25 µg/mL (≈ 6.75 µM)
MIC [9, 28]: > 50 µg/mL
MIC [10]: 1.56 µg/mL (≈ 1.68 µM)
MIC [11]: > 50 µg/mL
MIC [12, 28]: > 50 µg/mL
MIC [13, 28]: > 50 µg/mL
MIC (Mycoplasma hyorhinis 29E): 6.25 µg/mL (≈ 6.75 µM)
MIC [14]: 25 µg/mL (≈ 27 µM)
MIC [15]: 50 µg/mL (≈ 54 µM)
MIC (Mycoplasma synoviae 40A): 12.5 µg/mL (≈ 13.5 µM)
MIC [16]: > 128 µg/mL
MIC [17]: 4 µg/mL (≈ 4.32 µM)
MIC [18]: 4 µg/mL (≈ 4.32 µM)
MIC [19]: 64 µg/mL (≈ 69.1 µM)
MIC ([20]; agar-dilution, Ampicillin-sensitive strain, read-out: MIC): 128 µg/mL (≈ 138 µM)
MIC (Escherichia coli EC14): > 128 µg/mL
MIC [21]: 2 µg/mL (≈ 2.16 µM)
MIC [22]: 2 µg/mL (≈ 2.16 µM)
MIC [23]: 4 µg/mL (≈ 4.32 µM)
MIC [24]: 2 µg/mL (≈ 2.16 µM)
MIC [25]: 2 µg/mL (≈ 2.16 µM)
MIC [26]: > 128 µg/mL
ED50 ([27]; C203, Oral): 21.4 mg/kg
ED50 ([27]; C203, sc, Subcutaneous): > 6.25 mg/kg

CCC1OC(=O)CC(O)C(C)C(OC2OC(C)C(O)C(N(C)C)C2OC(C)=O)C(CC=O)CC(C)C(=O)C=CC(C)=CC1COC1OC(C)C(OC(C)=O)C(OC(=O)COc2ccccc2)C1OC (centres unmarked) [Compound 37, 2',4"-Di-O-acetyl-3"-O-phenoxyacetyllactenocin]
MIC ([1]; agar-dilution, read-out: MIC): 0.12 µg/mL (≈ 0.123 µM)
MIC [2]: 1 µg/mL (≈ 1.02 µM)
MIC [3]: 12.5 µg/mL (≈ 12.8 µM)
MIC (Streptococcus sp. 19F): 0.78 µg/mL (≈ 0.799 µM)
MIC [4]: 25 µg/mL (≈ 25.6 µM)
MIC [5]: 25 µg/mL (≈ 25.6 µM)
MIC [6]: 25 µg/mL (≈ 25.6 µM)
MIC [7]: 25 µg/mL (≈ 25.6 µM)
MIC [8]: 1.56 µg/mL (≈ 1.6 µM)
MIC [9]: 25 µg/mL (≈ 25.6 µM)
MIC [10]: 0.195 µg/mL (≈ 0.2 µM)
MIC [11]: > 50 µg/mL
MIC [12]: 25 µg/mL (≈ 25.6 µM)
MIC [13]: 25 µg/mL (≈ 25.6 µM)
MIC (Mycoplasma hyorhinis 29E): 6.25 µg/mL (≈ 6.4 µM)
MIC [14]: 6.25 µg/mL (≈ 6.4 µM)
MIC [15]: 12.5 µg/mL (≈ 12.8 µM)
MIC (Mycoplasma synoviae 40A): 0.78 µg/mL (≈ 0.799 µM)
MIC [16]: > 128 µg/mL
MIC [17]: 1 µg/mL (≈ 1.02 µM)
MIC [18]: 2 µg/mL (≈ 2.05 µM)
MIC [19]: 4 µg/mL (≈ 4.1 µM)
MIC [20]: 16 µg/mL (≈ 16.4 µM)
MIC (Escherichia coli EC14): > 128 µg/mL
MIC [21]: 1 µg/mL (≈ 1.02 µM)
MIC [22]: 1 µg/mL (≈ 1.02 µM)
MIC [23]: 2 µg/mL (≈ 2.05 µM)
MIC [24]: 1 µg/mL (≈ 1.02 µM)
MIC [25]: 0.5 µg/mL (≈ 0.512 µM)
MIC [26]: > 128 µg/mL

CCC1OC(=O)CC(O)C(C)C(OC2OC(C)C(O)C(N(C)C)C2O)C(CC=O)CC(C)C(=O)C=CC(C)=CC1COC1OC(C)C(OC(C)=O)C(OC(=O)COc2ccccc2)C1OC (centres unmarked) [Compound 38, 4"-O-Acetyl-3"-O-phenoxyacetyl-lactenocin]
MIC [1]: 0.25 µg/mL (≈ 0.268 µM)
MIC [2]: 1 µg/mL (≈ 1.07 µM)
MIC [3]: 12.5 µg/mL (≈ 13.4 µM)
MIC (Streptococcus sp. 19F): 0.78 µg/mL (≈ 0.835 µM)
MIC [4]: 12.5 µg/mL (≈ 13.4 µM)
MIC [5]: 25 µg/mL (≈ 26.8 µM)
MIC [6]: 25 µg/mL (≈ 26.8 µM)
MIC [7]: 25 µg/mL (≈ 26.8 µM)
MIC [8]: 3.12 µg/mL (≈ 3.34 µM)
MIC [9]: 25 µg/mL (≈ 26.8 µM)
MIC [10]: 0.39 µg/mL (≈ 0.418 µM)
MIC [11]: > 50 µg/mL
MIC [12]: 50 µg/mL (≈ 53.5 µM)
MIC [13]: 25 µg/mL (≈ 26.8 µM)
MIC (Mycoplasma hyorhinis 29E): 12.5 µg/mL (≈ 13.4 µM)
MIC [14]: 25 µg/mL (≈ 26.8 µM)
MIC [15]: 12.5 µg/mL (≈ 13.4 µM)
MIC (Mycoplasma synoviae 40A): 0.78 µg/mL (≈ 0.835 µM)
MIC [16]: > 128 µg/mL
MIC [17]: 2 µg/mL (≈ 2.14 µM)
MIC [18]: 2 µg/mL (≈ 2.14 µM)
MIC [19]: 8 µg/mL (≈ 8.56 µM)
MIC [20]: 16 µg/mL (≈ 17.1 µM)
MIC (Escherichia coli EC14): > 128 µg/mL
MIC [21]: 1 µg/mL (≈ 1.07 µM)
MIC [22]: 1 µg/mL (≈ 1.07 µM)
MIC [23]: 2 µg/mL (≈ 2.14 µM)
MIC [24]: 1 µg/mL (≈ 1.07 µM)
MIC [25]: 0.5 µg/mL (≈ 0.535 µM)
MIC [26]: > 128 µg/mL

From US4820694A, “Modifications of 3-O-demethylmycinose in macrocin and lactenocin” (priority 1986, dated 1989)
